The source of these data is paper PMC5833849, “Sensitizing tumor cells to conventional drugs: HSP70 chaperone inhibitors, their selection and application in cancer models” (Cell Death & Disease, 2018).

Like-named read-outs stand apart in the source and are kept apart here.

The target of test [1] is T1, Hsp70 (Homo sapiens, UniProt P0DMV8).
T1 construct: gene HSPA1A; Recombinant human Hsp70
The test is described as follows: inhibition of Hsp70 binding to carboxymethylated lactalbumin ([…] at […]); luciferase refolding ([…] at […]). It is filed as biochemical.

Test [2] has as its target T1, Hsp70. Described as above. It is filed as biochemical. This is another data set of the same source.
Test [3] deals with T1, Hsp70. Nature of the test: microscale thermophoresis (also DARTS; inhibition of substrate binding and luciferase refolding by Hsp70).

T1 sequence (P0DMV8 2-641): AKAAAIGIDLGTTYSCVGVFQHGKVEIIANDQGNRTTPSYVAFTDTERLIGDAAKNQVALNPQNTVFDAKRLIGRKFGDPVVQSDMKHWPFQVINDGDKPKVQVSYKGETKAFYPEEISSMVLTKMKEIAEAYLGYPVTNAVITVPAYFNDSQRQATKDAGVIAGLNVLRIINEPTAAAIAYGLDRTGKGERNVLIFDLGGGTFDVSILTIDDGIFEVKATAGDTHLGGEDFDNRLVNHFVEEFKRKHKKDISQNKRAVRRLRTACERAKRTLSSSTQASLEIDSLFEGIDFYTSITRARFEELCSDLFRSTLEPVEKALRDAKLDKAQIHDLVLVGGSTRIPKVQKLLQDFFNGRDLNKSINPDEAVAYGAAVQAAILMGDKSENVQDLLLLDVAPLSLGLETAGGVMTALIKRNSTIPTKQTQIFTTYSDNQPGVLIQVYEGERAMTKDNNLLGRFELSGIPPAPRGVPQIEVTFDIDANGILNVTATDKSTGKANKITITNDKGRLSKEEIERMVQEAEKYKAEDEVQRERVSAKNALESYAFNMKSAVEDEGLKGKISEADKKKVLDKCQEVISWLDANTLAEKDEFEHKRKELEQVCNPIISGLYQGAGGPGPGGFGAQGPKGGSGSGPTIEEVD

Regarding `CCn1c(=Cc2cccc[n+]2CC)sc(=C2Sc3ccccc3N2C)c1=O` [MKT-077], 1 µM produced 27% inhibition in test [1]. For the compound `N#Cc1ccc(COC[C@H]2O[C@@H](n3c(NCc4ccc(Cl)c(Cl)c4)nc4c(N)ncnc43)[C@H](O)[C@@H]2O)cc1` [VER-155008], in test [2], 1 µM produced 19% inhibition. On to `COc1cc2c(c(OC)c1OC)-c1ccc(NCCN)c(=O)cc1[C@@H](NC(C)=O)CC2` [AEAC], for which binding in test [3] was put at a Kd of 149 ± 49.6 nM.
